Test results taken from patent publication US12643882B2, “Inhibitors of human respiratory syncytial virus and metapneumovirus” (priority 2022, dated 2026).
pEC50: −log10 of the molar value. Where two headings read alike, the source gives them in different places.

Tests used:
[1] = test system: RSV-A2-GFP virus; assay: microbe, parasite or virus in culture; format: cell-based, Human Respiratory Syncytial Virus
Experimental: To set up the assay, ARF vials were thawed in a 37° C. water bath and a control compound was resuspended in assay media DMEM (Dulbecco's Modified Eagle Medium) containing 2% FBS, 100 U/ml Penicillin-Streptomycin.
GFP sequence was derived from pJTI™ R4 Dest CMV N-EmGFP pA Vector (Invitrogen) and was cloned into the intergenic sequence between wild-type RSV-A2 P and M genes using standard recombineering techniques. Recombinant RSV-A2-GFP was propagated in Hep2 cells (human cells contain HeLa marker chromosomes and were derived via HeLa contamination, ATCC CCL-23) with a Multiplicity of Infection (MOI) of 0.1. Virus was harvested 3 days after infection by collecting all culture material and then freeze-thawing the mixture for 5 min. Working virus stocks were generated by thawing frozen viral cultures in 37° C. water bath, which were centrifuged at 218 g for 15 min at 4° C. 1/10 of 10×SPG (Biological Industries 06-3061-01-5A) were added and then mixed. The supernatant was aliquoted, frozen in liquid nitrogen, and then transferred to a −80° C. freezer for storage. Virus titer was determined by automated plaque assay in HEp-2 cells following methods described previously (Wen Z. et al.; 2019).
Calu-1 cells were purchased from ATCC (Cat #HTB-54) and were expanded in growth media (DMEM containing 10% FBS, 100 U/ml Penicillin-Streptomycin). To make ARF, cell culture media was removed and discarded and the cell layer was briefly rinsed with PBS to remove serum. 2.5 mL of TrypLE Express solution were added and cells incubated until dislodged, to which growth media was added and the cells were resuspended by gentle pipetting. Cells were counted for concentration and viability as determined by ViCell. Cells were centrifuged at RT, 300 g for 5 minutes to pellet cells. The supernatant was gently aspirated and the pellet was flicked to loosen cells. Cells were resuspended in an appropriate volume of freezing medium (DMEM containing 10% DMSO, 10% FBS, 100 U/ml Penicillin-Streptomycin) to achieve a concentration of 5×10^6 cells/mL. 1 mL aliquots of the cell suspension were transferred to freezing vials. The vials were put into an upright container in a −80° C. freezer overnight before transferring vials to liquid nitrogen for storage.
Assay ready freezedown (ARF, generation described separately) Calu-1 cells (ATCC HTB-54) were used. Compound plates were prepared by dispensing compounds dissolved in DMSO into the wells of a 384 well Corning® 3985 plate with an ECHO acoustic dispenser and compounds were tested in 10-point serial 3-fold dilution. […] To set up the assay, ARF vial(s) were thawed in a 37° C. water bath and were then resuspended into assay media (DMEM containing 2% FBS, 100 U/ml Penicillin-Streptomycin). Cells were counted using default parameters on ViCell and diluted to 20,000 cells/mL in assay media. RSV-A2-GFP virus was added to cells at 24,000 pfu/ml (MOI=1.2) and mixed by gentle inversion. 10 μL/well of 100% DMSO was dispensed as CellTiter-Glo (CTG) assay Max_E controls wells. The cells were dispensed at 50 μL/well using Bravo with 50 μL filtered tips into compound plates. Plates were covered with MicroClime lids, loaded with 7.5 mL of assay media to minimize evaporation, and were incubated at 37° C. and 5% CO2 for 96 hrs. Following incubation, distinct, GFP-expressing cells were counted using an Acumen imaging system with appropriate settings. A same-well CTG assay was performed by adding 10 μL/well reconstituted CellTiter-Glo reagent (Promega G7573) and plates were read on PerkinElmer Envision according to manufacturer's instructions. Raw data were loaded and analyzed in ActivityBase. Antiviral IC50 and cytotoxicity CC50 values were determined using a 4 parameter logistic fit based on the Levenberg-Marquardt algorithm. Model: 205-4 Parameter Logistic.

[2] = test system: hMPV-GFP virus; assay: microbe, parasite or virus in culture; format: cell-based, human metapneumovirus
Experimental: GFP expressing rgHMPV #3 p3 was generated in Dr. Buchholz's lab (Biacchesi S. et al., J Virol. 2007 June; 81(11): 6057-6067) and propagated in VERO cells (ATCC Cat #CCL-81) with a Multiplicity of Infection (MOI) of 0.1. Virus was harvested 4 days after infection by collecting cultured material and was freeze-thaw cycled in liquid nitrogen twice. Working virus stocks were generated from thawing frozen samples in 37° C. water bath, which were centrifuged at 218 g for 15 min at 4° C. 1/10 of 10×SPG (Biological Industries 06-3061-01-5A) were added and then mixed. The supernatant was aliquoted, frozen in liquid nitrogen, and then transferred to a −80° C. freezer for storage. Virus titer was determined by performing titration test in 96-well plates and calculate approximate virus titer using GFP event/well data.
Compound plates were prepared by dispensing compounds dissolved in DMSO into wells of a 384 well Corning 3985 polystyrene flat clear bottom optical imaging microplate (202.5 nL/well) using an ECHO acoustic dispenser. Each compound was tested in 10-point serial 3-fold dilution (typical final concentrations: 40,300 nM-2 nM). […] Continuous culture of VERO cells was maintained in complete culture media (OptiMEM supplemented with 2 mM GlutaMAX™ and 100 U/ml Penicillin-Streptomycin). To set up the assay, VERO cells were trypsinized with 0.25% Trypsin-EDTA until cells were dislodged, then cells were re-suspended with 1 mL FBS. Cells were spun down at 300 g for 5 minutes and cells were washed twice with culture media and counted using default parameters on ViCell. Cells were then diluted to 100,000 cells/mL (5,000 cells/50 μL) in complete culture media+TrypLE Select (80 μL/mL). hMPV-GFP virus was added to cells at 125,000 pfu/mL (MOI=1.25) and were mixed by gentle inversion. 10 μL/well of 100% DMSO was dispensed to CellTiter-Glo (CTG) assay Max_E controls wells. Cells were dispensed at 50 μL/well using Bravo and 50 μL filtered tips into compound plates. Plates were covered with MicroClime lids and loaded with 7.5 mL of assay media to minimize evaporation. Plates were lightly shaken for 10 minutes at room temperature and then incubated at 37° C. and 5% CO2 for 48 hrs. Following incubation, distinct GFP-expressing cells were counted using an Acumen imaging system with appropriate settings. A same-well CTG assay was performed by adding 10 μL/well reconstituted CellTiter-Glo reagent (Promega G7573) and plates were read on PerkinElmer Envision according to manufacturer's instructions. Raw data were loaded and analyzed in ActivityBase. Antiviral IC50 and cytotoxicity CC50 values were determined using a 4 parameter logistic fit based on the Levenberg-Marquardt algorithm. Model: 205-4 Parameter Logistic. • References: Wen Z, Citron M, Bett A J, Espeseth A S, Vora K A, Zhang L, DiStefano D J. Development and application of a higher throughput RSV plaque assay by immunofluorescent imaging. J Virol Methods. 2019 January; 263:88-95. doi: 10.1016/j.jviromet.2018.10.022. Epub 2018 Oct. 28. PMD: 30381239. • Biacchesi S, Murphy B R, Collins P L, Buchholz U J. Frequent frameshift and point mutations in the SH gene of human metapneumovirus passaged in vitro. J Virol. 2007 June; 81(11):6057-67. doi: 10.1128/JVL.00128-07. Epub 2007 Mar. 21. PMID: 17376897; PMCID: MC 1900297. Assay Data

[3] = human respiratory syncytial virus, Calu-1, 96 h, read-out: RSV EC50, Calu-1 cells infected with RSV-A2-GFP, 96 hrs, GFP-expressing cells counted
[4] = read-out: hMPV EC50, VERO cells infected with hMPV-GFP, 48 hrs, GFP-expressing cells counted
[5] = human metapneumovirus, Vero, 48 h, read-out: hMPV EC50, VERO cells infected with hMPV-GFP, 48 hrs, GFP-expressing cells counted
[6] = Calu-1 cells infected with RSV-A2-GFP, 96 hrs, GFP-expressing cells counted, read-out: RSV EC50
[7] = VERO cells infected with hMPV-GFP, 48 hrs, GFP-expressing cells counted, read-out: hMPV EC50
[8] = read-out: RSV EC50, Calu-1 cells infected with RSV-A2-GFP, 96 hrs, GFP-expressing cells counted

| Compound | pEC50 [1, 3] | pEC50 [2, 4] | pEC50 [2, 5] | pEC50 [1, 8] | also measured |
| --- | --- | --- | --- | --- | --- |
| Cc1nn(-c2ncccn2)cc1C(=O)N1C[C@H]2[C@H](Oc3cc(C(C)(C)N)cc(-c4ccc(F)cc4F)n3)[C@@]2(C)C1 (single isomer, unassigned; enantiomer 1) [Example 109A] | > 8.00 | < 7.00 | – | – | – |
| Cn1nc(-c2ncccn2)cc1C(=O)N1C[C@H]2[C@H](Oc3cc(C(C)(C)N)cc(-c4ccc(C(F)(F)F)cc4)n3)[C@@]2(C)C1 (single isomer, unassigned; enantiomer 1) [Example 110A] | > 8.00 | 7.00 to 8.00 | – | – | – |
| Cc1nn(-c2ncccn2)cc1C(=O)N1C[C@H]2[C@H](Oc3cc(C(C)(C)N)cc(-c4ccc(C(F)(F)F)cc4)n3)[C@@]2(C)C1 (single isomer, unassigned; enantiomer 1) [Example 111A] | > 8.00 | < 7.00 | – | – | – |
| Cc1nn(-c2ncccn2)cc1C(=O)N1C[C@@H]2[C@H](C1)[C@H]2Oc1cc(C2(C)CCCN2)cc(-c2ccc(F)cc2)n1 (single isomer, unassigned; enantiomer 1) [Example 112] | > 8.00 | – | < 7.00 | – | – |
| Cc1nc(-c2ncccn2)sc1C(=O)N1C[C@@H]2[C@H](C1)[C@H]2Oc1cc(C(C)(N)CO)cc(-c2ccc(F)cc2)n1 (single isomer, unassigned; enantiomer 1) [Example 113A] | > 8.00 | – | < 7.00 | – | – |
| CCC(C)(N)c1cc(OC2[C@H]3CN(C(=O)c4cn(-c5ncccn5)nc4C)C[C@@H]23)nc(-c2ccc(F)cc2)c1 (single isomer, unassigned; enantiomer 1) [Example 116A] | – | – | – | – | pEC50 [1, 6]: > 8.00; pEC50 [2, 7]: < 7.00 |
| CCc1nc(-c2ncccn2)sc1C(=O)N1C[C@@H]2[C@H]1C[C@H]2Oc1cc(C(C)(C)N)cc(-c2ccc(F)cc2)n1 (single isomer, unassigned; enantiomer 2) [Example 3] | > 8.00 | – | < 7.00 | – | – |
| Cn1nc(-c2ncccn2)cc1C(=O)N1C[C@@H]2[C@H]1C[C@H]2Oc1cc(C(C)(C)N)cc(-c2ccc(F)cc2)n1 (single isomer, unassigned; enantiomer 2) [Example 4] | 7.00 to 8.00 | – | < 7.00 | – | – |
| CCc1nn(-c2ncccn2)cc1C(=O)N1C[C@@H]2[C@H]1C[C@H]2Oc1cc(C(C)(C)N)cc(-c2ccc(F)cc2)n1 (single isomer, unassigned; enantiomer 2) [Example 5] | > 8.00 | – | < 7.00 | – | – |
| CC(C)(N)c1cc(O[C@@H]2C[C@@H]3[C@H]2CN3C(=O)c2cn(-c3ncccn3)nc2C2CC2)nc(-c2ccc(F)cc2)c1 (single isomer, unassigned; enantiomer 2) [Example 6] | > 8.00 | – | < 7.00 | – | – |
| CC(O)c1nn(-c2ncccn2)cc1C(=O)N1C[C@@H]2C(Oc3cc(C(C)(C)N)cc(-c4ccc(F)c(F)c4)n3)[C@@H]2C1 (single isomer, unassigned; enantiomer 2) [Example 96B] | – | – | – | – | pEC50 [1, 6]: > 8.00; pEC50 [2, 7]: < 7.00 |
| Cc1nc(-c2ncccn2)sc1C(=O)N1C[C@H]2[C@H](Oc3cc(C(C)(C)N)cc(-c4ccc(F)cc4)n3)[C@@]2(C)C1 (single isomer, unassigned; enantiomer 2) [Example 103B] | > 8.00 | – | 7.00 to 8.00 | – | – |
| Cn1nc(-c2ncccn2)cc1C(=O)N1C[C@H]2[C@H](Oc3cc(C(C)(C)N)cc(-c4ccc(F)cc4)n3)[C@@]2(C)C1 (single isomer, unassigned; enantiomer 2) [Example 104B] | – | < 7.00 | – | > 8.00 | – |
| Cn1nc(-c2ncccn2)cc1C(=O)N1C[C@H]2[C@H](Oc3cc(C(C)(C)N)cc(-c4ccc(F)c(F)c4)n3)[C@@]2(C)C1 (single isomer, unassigned; enantiomer 2) [Example 105B] | – | 7.00 to 8.00 | – | > 8.00 | – |
| Cc1nn(-c2ncccn2)cc1C(=O)N1C[C@H]2[C@H](Oc3cc(C(C)(C)N)cc(-c4ccc(F)c(F)c4)n3)[C@@]2(C)C1 (single isomer, unassigned; enantiomer 2) [Example 106B] | – | 7.00 to 8.00 | – | > 8.00 | – |
| Cc1nn(-c2ncccn2)cc1C(=O)N1C[C@H]2[C@H](Oc3cc(C(C)(C)N)cc(-c4ccc(F)cc4)n3)[C@@]2(C)C1 (single isomer, unassigned; enantiomer 2) [Example 107B] | – | < 7.00 | – | > 8.00 | – |
| Cn1nc(-c2ncccn2)cc1C(=O)N1C[C@H]2[C@H](Oc3cc(C(C)(C)N)cc(-c4ccc(F)cc4F)n3)[C@@]2(C)C1 (single isomer, unassigned; enantiomer 2) [Example 108B] | – | < 7.00 | – | > 8.00 | – |
| Cc1nn(-c2ncccn2)cc1C(=O)N1C[C@H]2[C@H](Oc3cc(C(C)(C)N)cc(-c4ccc(F)cc4F)n3)[C@@]2(C)C1 (single isomer, unassigned; enantiomer 2) [Example 109B] | – | 7.00 to 8.00 | – | > 8.00 | – |
